Laboratory results: the NIST ThermoML archive (doi:10.1021/je060210c)

What was measured:
[1] = xn = mol fraction of the nth substance listed; conditions: 101 kPa, Liquid; for speed of sound: Sing-around technique in a fixed-path interferometer
[2] = excess molar enthalpy (molar enthalpy of mixing); xn = mol fraction of the nth substance listed; conditions: 101 kPa, Liquid

C=C1CCC2CC1C2(C)C (stereo not drawn) [β-pinene] + CCCCCO
Conditions | excess molar enthalpy [kJ/mol] | mass density [kg/m3] | speed of sound [m/s]
[1], 283.15 K, x1 = 0.1075 | – | 830.13 | 1327.7
[1], 283.15 K, x1 = 0.2016 | – | 836.79 | 1328.9
[1], 283.15 K, x1 = 0.3016 | – | 843.32 | 1330.6
[1], 283.15 K, x1 = 0.4028 | – | 849.41 | 1331.6
[1], 283.15 K, x1 = 0.5026 | – | 854.98 | 1333.2
[1], 283.15 K, x1 = 0.6034 | – | 860.24 | 1335.1
[1], 283.15 K, x1 = 0.7014 | – | 865.12 | 1337.8
[1], 283.15 K, x1 = 0.8036 | – | 869.97 | 1341.4
[1], 283.15 K, x1 = 0.9009 | – | 874.43 | 1346.2
[1], 283.15 K, x1 = 0.9481 | – | 876.59 | 1349.3
[1], 298.15 K, x1 = 0.1004 | – | – | 1275
[1], 298.15 K, x1 = 0.1057 | – | 819.15 | –
[1], 298.15 K, x1 = 0.2012 | – | 825.47 | –
[1], 298.15 K, x1 = 0.2024 | – | – | 1275.5
[1], 298.15 K, x1 = 0.3032 | – | 831.91 | –
[1], 298.15 K, x1 = 0.3081 | – | – | 1275.8
[1], 298.15 K, x1 = 0.3975 | – | – | 1275.9
[1], 298.15 K, x1 = 0.4023 | – | 837.67 | –
[1], 298.15 K, x1 = 0.4982 | – | – | 1276.4
[1], 298.15 K, x1 = 0.4984 | – | 842.91 | –
[1], 298.15 K, x1 = 0.6021 | – | 848.24 | 1277.9
[1], 298.15 K, x1 = 0.6945 | – | 852.74 | –
[1], 298.15 K, x1 = 0.696 | – | – | 1279.6
[1], 298.15 K, x1 = 0.7994 | – | 857.65 | –
[1], 298.15 K, x1 = 0.8066 | – | – | 1283
[1], 298.15 K, x1 = 0.8952 | – | – | 1286.9
[1], 298.15 K, x1 = 0.8997 | – | 862.25 | –
[1], 298.15 K, x1 = 0.9465 | – | 864.37 | –
[1], 298.15 K, x1 = 0.9528 | – | – | 1291
[1], 313.15 K, x1 = 0.1007 | – | 807.27 | –
[1], 313.15 K, x1 = 0.1023 | – | – | 1223.7
[1], 313.15 K, x1 = 0.2007 | – | – | 1221.7
[1], 313.15 K, x1 = 0.2048 | – | 814.01 | –
[1], 313.15 K, x1 = 0.3027 | – | 819.95 | –
[1], 313.15 K, x1 = 0.3049 | – | – | 1220.9
[1], 313.15 K, x1 = 0.4019 | – | 825.6 | 1220.4
[1], 313.15 K, x1 = 0.5024 | – | 830.92 | 1220.6
[1], 313.15 K, x1 = 0.5976 | – | 835.75 | 1221.2
[1], 313.15 K, x1 = 0.6977 | – | 840.54 | 1222.1
[1], 313.15 K, x1 = 0.7991 | – | 845.26 | 1224.3
[1], 313.15 K, x1 = 0.9066 | – | 850.18 | 1228.6
[1], 313.15 K, x1 = 0.9468 | – | 852.1 | 1231
[2], 283.15 K, x1 = 0.049 | 0.028 | – | –
[2], 283.15 K, x1 = 0.096 | 0.065 | – | –
[2], 283.15 K, x1 = 0.192 | 0.136 | – | –
[2], 283.15 K, x1 = 0.286 | 0.209 | – | –
[2], 283.15 K, x1 = 0.388 | 0.27 | – | –
[2], 283.15 K, x1 = 0.488 | 0.315 | – | –
[2], 283.15 K, x1 = 0.588 | 0.339 | – | –
[2], 283.15 K, x1 = 0.69 | 0.345 | – | –
[2], 283.15 K, x1 = 0.791 | 0.322 | – | –
[2], 283.15 K, x1 = 0.892 | 0.253 | – | –
[2], 283.15 K, x1 = 0.95 | 0.2 | – | –
[2], 283.15 K, x1 = 0.97 | 0.15 | – | –
[2], 283.15 K, x1 = 0.99 | 0.095 | – | –
[2], 298.15 K, x1 = 0.049 | 0.074 | – | –
[2], 298.15 K, x1 = 0.096 | 0.155 | – | –
[2], 298.15 K, x1 = 0.192 | 0.314 | – | –
[2], 298.15 K, x1 = 0.286 | 0.459 | – | –
[2], 298.15 K, x1 = 0.388 | 0.585 | – | –
[2], 298.15 K, x1 = 0.488 | 0.671 | – | –
[2], 298.15 K, x1 = 0.588 | 0.72 | – | –
[2], 298.15 K, x1 = 0.69 | 0.726 | – | –
[2], 298.15 K, x1 = 0.791 | 0.673 | – | –
[2], 298.15 K, x1 = 0.892 | 0.528 | – | –
[2], 298.15 K, x1 = 0.95 | 0.385 | – | –
[2], 298.15 K, x1 = 0.97 | 0.306 | – | –
[2], 298.15 K, x1 = 0.99 | 0.246 | – | –
[2], 313.15 K, x1 = 0.049 | 0.107 | – | –
[2], 313.15 K, x1 = 0.096 | 0.224 | – | –
[2], 313.15 K, x1 = 0.192 | 0.443 | – | –
[2], 313.15 K, x1 = 0.286 | 0.647 | – | –
[2], 313.15 K, x1 = 0.388 | 0.812 | – | –
[2], 313.15 K, x1 = 0.488 | 0.926 | – | –
[2], 313.15 K, x1 = 0.588 | 0.989 | – | –
[2], 313.15 K, x1 = 0.69 | 0.994 | – | –
[2], 313.15 K, x1 = 0.791 | 0.929 | – | –
[2], 313.15 K, x1 = 0.892 | 0.762 | – | –
[2], 313.15 K, x1 = 0.95 | 0.536 | – | –
[2], 313.15 K, x1 = 0.97 | 0.399 | – | –
[2], 313.15 K, x1 = 0.99 | 0.137 | – | –

C=C1CCC2CC1C2(C)C (stereo not drawn) [β-pinene] + CCCC(C)O
Conditions | excess molar enthalpy [kJ/mol] | mass density [kg/m3] | speed of sound [m/s]
[1], 283.15 K, x1 = 0.104 | – | 824.99 | 1291.4
[1], 283.15 K, x1 = 0.2047 | – | 832.2 | 1295.3
[1], 283.15 K, x1 = 0.3071 | – | 839.03 | 1299.3
[1], 283.15 K, x1 = 0.3997 | – | 844.95 | 1303.5
[1], 283.15 K, x1 = 0.4964 | – | 850.86 | 1308.8
[1], 283.15 K, x1 = 0.6058 | – | 857.28 | 1316.2
[1], 283.15 K, x1 = 0.6929 | – | 862.26 | 1323.1
[1], 283.15 K, x1 = 0.8016 | – | 868.23 | 1332.7
[1], 283.15 K, x1 = 0.904 | – | 873.67 | 1342.4
[1], 283.15 K, x1 = 0.9454 | – | 875.83 | 1346.8
[1], 298.15 K, x1 = 0.1056 | – | 812.89 | 1235
[1], 298.15 K, x1 = 0.2051 | – | 819.88 | 1238.6
[1], 298.15 K, x1 = 0.3052 | – | 826.49 | 1241.5
[1], 298.15 K, x1 = 0.4038 | – | 832.72 | 1245.8
[1], 298.15 K, x1 = 0.5068 | – | 838.99 | 1251.5
[1], 298.15 K, x1 = 0.601 | – | 844.56 | 1257.8
[1], 298.15 K, x1 = 0.695 | – | 849.94 | 1265
[1], 298.15 K, x1 = 0.8014 | – | 855.84 | 1273.7
[1], 298.15 K, x1 = 0.9001 | – | 861.15 | 1282.7
[1], 298.15 K, x1 = 0.9499 | – | 863.9 | 1288.2
[1], 313.15 K, x1 = 0.1069 | – | 800.02 | 1170.1
[1], 313.15 K, x1 = 0.1981 | – | 806.39 | 1173.2
[1], 313.15 K, x1 = 0.3039 | – | 813.43 | 1177.7
[1], 313.15 K, x1 = 0.4034 | – | 819.78 | 1182.2
[1], 313.15 K, x1 = 0.5067 | – | 826.14 | 1188.2
[1], 313.15 K, x1 = 0.6023 | – | 831.84 | 1195.1
[1], 313.15 K, x1 = 0.7005 | – | 837.55 | 1203.4
[1], 313.15 K, x1 = 0.7975 | – | 843.07 | 1212.8
[1], 313.15 K, x1 = 0.8956 | – | – | 1223.2
[1], 313.15 K, x1 = 0.8957 | – | 848.53 | –
[1], 313.15 K, x1 = 0.9497 | – | 851.6 | 1229.6
[2], 283.15 K, x1 = 0.049 | 0.125 | – | –
[2], 283.15 K, x1 = 0.1 | 0.264 | – | –
[2], 283.15 K, x1 = 0.193 | 0.49 | – | –
[2], 283.15 K, x1 = 0.294 | 0.683 | – | –
[2], 283.15 K, x1 = 0.395 | 0.811 | – | –
[2], 283.15 K, x1 = 0.495 | 0.878 | – | –
[2], 283.15 K, x1 = 0.591 | 0.878 | – | –
[2], 283.15 K, x1 = 0.695 | 0.81 | – | –
[2], 283.15 K, x1 = 0.794 | 0.704 | – | –
[2], 283.15 K, x1 = 0.9 | 0.514 | – | –
[2], 283.15 K, x1 = 0.942 | 0.385 | – | –
[2], 283.15 K, x1 = 0.971 | 0.276 | – | –
[2], 283.15 K, x1 = 0.985 | 0.149 | – | –
[2], 298.15 K, x1 = 0.049 | 0.16 | – | –
[2], 298.15 K, x1 = 0.1 | 0.336 | – | –
[2], 298.15 K, x1 = 0.193 | 0.622 | – | –
[2], 298.15 K, x1 = 0.294 | 0.862 | – | –
[2], 298.15 K, x1 = 0.395 | 1.02 | – | –
[2], 298.15 K, x1 = 0.495 | 1.1 | – | –
[2], 298.15 K, x1 = 0.591 | 1.1 | – | –
[2], 298.15 K, x1 = 0.695 | 1.06 | – | –
[2], 298.15 K, x1 = 0.794 | 0.938 | – | –
[2], 298.15 K, x1 = 0.9 | 0.719 | – | –
[2], 298.15 K, x1 = 0.942 | 0.52 | – | –
[2], 298.15 K, x1 = 0.971 | 0.366 | – | –
[2], 298.15 K, x1 = 0.985 | 0.189 | – | –
[2], 313.15 K, x1 = 0.049 | 0.209 | – | –
[2], 313.15 K, x1 = 0.1 | 0.413 | – | –
[2], 313.15 K, x1 = 0.193 | 0.749 | – | –
[2], 313.15 K, x1 = 0.294 | 1.03 | – | –
[2], 313.15 K, x1 = 0.395 | 1.21 | – | –
[2], 313.15 K, x1 = 0.495 | 1.32 | – | –
[2], 313.15 K, x1 = 0.591 | 1.34 | – | –
[2], 313.15 K, x1 = 0.695 | 1.31 | – | –
[2], 313.15 K, x1 = 0.794 | 1.2 | – | –
[2], 313.15 K, x1 = 0.9 | 0.88 | – | –
[2], 313.15 K, x1 = 0.942 | 0.642 | – | –
[2], 313.15 K, x1 = 0.971 | 0.405 | – | –
[2], 313.15 K, x1 = 0.985 | 0.185 | – | –
